# Results from patent US5886046A, “Dicarbonyl-containing compounds” (priority 1996, dated 1999).
# Experiments:
# HIV-1 protease = HIV-1 protease (Human immunodeficiency virus type 1 group M subtype B, UniProt P12497); assay: biochemical
# From the text: (§1) The biological activity compound (4) was compared with the known enzyme inhibitor (1) N-(2(R)-Hydroxy-1(S)-indonyl)-5(S)-[tert-butyloxycarbonyl)amino]-4(S)-hydroxy-6-(4-hydroxyphenyl)-2-(R) -[(4-hydroxyphenyl)methyl]hexanamide. See, e.g., Thompson, W. J. et al., J. Med. Chem. 1992, 35, 1685) according to methods recited in the Thompson, supra. and Heimbach, J. C. et al., Biochem. Biophys. Res. Commun. 1989, 164, 955-960.
# HIV-1 = assay: CIC95 (cell culture assay of Thompson, not further described); format: cell-based
# From the text: as §1
smiles,measurement,setting,value
CC(=O)C(=O)COc1ccc(C[C@H](C[C@H](O)[C@H](Cc2ccccc2)NC(=O)OC(C)(C)C)C(=O)N[C@H]2c3ccccc3C[C@H]2O)cc1 [Compound 4],IC50,HIV-1 protease,0.075 nM
same,IC95,HIV-1; Human immunodeficiency virus 1,< 6 nM
same,CIC95/IC50,HIV-1; ratio of CIC95 to IC50,< 80
